From patent US20170334934A1, “Macrocyclic picolinamides as fungicides” (DOW AGROSCIENCES LLC, priority 2014, published 2017)
Where two headings read alike, the source gives them in different places.

How the values were obtained:
[1] = tested on: Mycosphaerella graminicola; Anamorph: Zymoseptoria tritici; assay: Fungicidal activity: Leaf Blotch of Wheat (SEPTTR), wheat seedlings; assay type: in vivo; conditions: Low Volume (121.5 g/H), wheat
Experimental: Example A: Evaluation of Fungicidal Activity: Leaf Blotch of Wheat (Mycosphaerella graminicola; Anamorph: Zymoseptoria tritici; Bayer Code […]) Technical grades of materials were dissolved in acetone, which were then mixed with nine volumes of water containing 110 ppm Triton X-100. The fungicide solutions were applied onto wheat seedlings using an automated booth sprayer to run-off. All sprayed plants were allowed to air dry prior to further handling. All fungicides were evaluated using the aforementioned method for their activity vs. all target diseases, unless stated otherwise. Wheat leaf blotch and brown rust activity were also evaluated using track spray applications, in which case the fungicides were formulated as EC formulations, containing 0.1% Trycol 5941 in the spray solutions. Wheat plants (variety Yuma) were grown from seed in a greenhouse in 50% mineral soil/50% soil-less Metro mix until the first leaf was fully emerged, with 7-10 seedlings per pot. These plants were inoculated with an aqueous spore suspension of Zymoseptoria tritici either prior to or after fungicide treatments. After inoculation the plants were kept in 100% relative humidity (one day in a dark dew chamber followed by two to three days in a lighted dew chamber at 20° C.) to permit spores to germinate and infect the leaf. The plants were then transferred to a greenhouse set at 20° C. for disease to develop. When disease symptoms were fully expressed on the 1st leaves of untreated plants, infection levels were assessed on a scale of 0 to 100 percent disease severity. Percent disease control was calculated using the ratio of disease severity on treated plants relative to untreated plants.

Puccinia triticina = assay: Fungicidal activity: Wheat Brown Rust (PUCCRT), wheat seedlings; assay type: in vivo; conditions: Low Volume (121.5 g/H)
Experimental: Technical grades of materials were dissolved in acetone, which were then mixed with nine volumes of water containing 110 ppm Triton X-100. The fungicide solutions were applied onto wheat seedlings using an automated booth sprayer to run-off. All sprayed plants were allowed to air dry prior to further handling. All fungicides were evaluated using the aforementioned method for their activity vs. all target diseases, unless stated otherwise. Wheat leaf blotch and brown rust activity were also evaluated using track spray applications, in which case the fungicides were formulated as EC formulations, containing 0.1% Trycol 5941 in the spray solutions. Wheat plants (variety Yuma) were grown from seed in a greenhouse in 50% mineral soil/50% soil-less Metro mix until the first leaf was fully emerged, with 7-10 seedlings per pot. These plants were inoculated with an aqueous spore suspension of Zymoseptoria tritici either prior to or after fungicide treatments. After inoculation the plants were kept in 100% relative humidity (one day in a dark dew chamber followed by two to three days in a lighted dew chamber at 20° C.) to permit spores to germinate and infect the leaf. The plants were then transferred to a greenhouse set at 20° C. for disease to develop. When disease symptoms were fully expressed on the 1st leaves of untreated plants, infection levels were assessed on a scale of 0 to 100 percent disease severity. Percent disease control was calculated using the ratio of disease severity on treated plants relative to untreated plants. Example B: Evaluation of Fungicidal Activity: Wheat Brown Rust (Puccinia triticina; Synonym: Puccinia recondita f. sp. tritici; Bayer Code PUCCRT) Wheat plants (variety Yuma) were grown from seed in a greenhouse in 50% mineral soil/50% soil-less Metro mix until the first leaf was fully emerged, with 7-10 seedlings per pot. These plants were inoculated with an aqueous spore suspension of Puccinia triticina either prior to or after fungicide treatments. After inoculation the plants were kept in a dark dew room at 22° C. with 100% relative humidity overnight to permit spores to germinate and infect the leaf. The plants were then transferred to a greenhouse set at 24° C. for disease to develop. Fungicide formulation, application and disease assessment followed the procedures as described in the Example A.

Row | melting point [°C] | SMILES | pest or weed control at 121.5 g/ha ([1]; 24 h, 1 Day Protectant, read-out: SEPTTR disease control rating, 1DP) [%] | pest or weed control at 121.5 g/ha ([1]; 72 h, 3 Day Curative, read-out: SEPTTR disease control rating, 3DC) [%] | pest or weed control at 121.5 g/ha (Puccinia triticina; 24 h, 1 Day Protectant, read-out: PUCCRT disease control rating, 1DP) [%] | pest or weed control at 121.5 g/ha (Puccinia triticina; 72 h, 3 Day Curative, read-out: PUCCRT disease control rating, 3DC) [%]
1 | 148 to 152 | C[C@@H]1OC(=O)[C@@H](NC(=O)OC(C)(C)C)CCOC[C@H]1O [Compound 24, tert-butyl ((3R,4S,7S)-3-hydroxy-4-methyl-6-oxo-1,5-dioxonan-7-yl)carbamate] | – | – | – | –
2 | 99 to 103 | CC(C)CO[C@@H]1COCC[C@H](NC(=O)OC(C)(C)C)C(=O)O[C@H]1C [Compound 29] | – | – | – | –
3 | 80 to 83 | C[C@@H]1OC(=O)[C@@H](NC(=O)OC(C)(C)C)CCOC[C@H]1OCCCC(F)(F)F [Compound 30] | – | – | – | –
4 | 43 to 48 | COc1ccnc(C(=O)N[C@H]2CCOC[C@@H](OCCCC(F)(F)F)[C@H](C)OC2=O)c1OC(C)=O [Compound 101] | < 70 | < 70 | > 70 | > 70
